Measured values from publication doi:10.1101/586255v1 (biorxiv, 2019).
Where two headings read alike, the source gives them in different places.

How the values were obtained:
EcSerRS [1] = molecular target: T1, EcSerRS (Escherichia coli, UniProt P0A8L1); experiment: continuous coupled spectrophotometric assay of adenylate formation; format: biochemical
SaSerRS [2] = molecular target: T2, SaSerRS (Staphylococcus aureus, UniProt P95689); experiment: as above; format: biochemical
HsSerRS [3] = molecular target: T3, HsSerRS (Homo sapiens, UniProt P49591); experiment: biochemical
T3 sequence (P49591 whole entry, looked up): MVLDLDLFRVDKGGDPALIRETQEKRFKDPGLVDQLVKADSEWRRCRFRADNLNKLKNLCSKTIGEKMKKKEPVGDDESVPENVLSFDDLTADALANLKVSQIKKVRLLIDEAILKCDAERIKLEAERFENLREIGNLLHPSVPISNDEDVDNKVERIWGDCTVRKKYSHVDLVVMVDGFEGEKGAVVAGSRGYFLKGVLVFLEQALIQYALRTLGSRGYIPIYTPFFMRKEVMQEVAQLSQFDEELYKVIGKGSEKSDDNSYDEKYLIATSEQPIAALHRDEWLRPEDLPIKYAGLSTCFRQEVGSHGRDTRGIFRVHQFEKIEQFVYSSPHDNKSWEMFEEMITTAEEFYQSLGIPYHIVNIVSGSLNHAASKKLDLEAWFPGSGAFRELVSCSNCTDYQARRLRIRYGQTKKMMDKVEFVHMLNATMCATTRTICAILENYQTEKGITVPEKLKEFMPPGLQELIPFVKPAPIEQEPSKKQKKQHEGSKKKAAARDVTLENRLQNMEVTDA

SaSerRS [4] = molecular target: T2, SaSerRS; experiment: biochemical
EcSerRS [5] = molecular target: T1, EcSerRS; experiment: biochemical
HsSerRS [6] = molecular target: T3, HsSerRS; format: biochemical
[7] = pH 7.6, 37 °C, 10 mM MgCl2, 10% DMSO

T1 sequence (P0A8L1 whole entry): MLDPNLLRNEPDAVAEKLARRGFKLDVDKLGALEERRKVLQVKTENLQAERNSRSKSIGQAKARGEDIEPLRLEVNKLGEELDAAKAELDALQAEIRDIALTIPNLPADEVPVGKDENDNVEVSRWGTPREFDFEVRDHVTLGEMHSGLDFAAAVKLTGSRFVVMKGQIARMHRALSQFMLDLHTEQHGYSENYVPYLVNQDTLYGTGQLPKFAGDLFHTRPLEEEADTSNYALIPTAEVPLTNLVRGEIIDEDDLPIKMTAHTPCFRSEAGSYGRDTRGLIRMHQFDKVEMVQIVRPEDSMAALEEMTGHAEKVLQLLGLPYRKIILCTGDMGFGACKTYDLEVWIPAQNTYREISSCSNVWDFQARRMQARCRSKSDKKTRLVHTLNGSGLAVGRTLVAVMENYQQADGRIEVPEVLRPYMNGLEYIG
T2 sequence (P95689 whole entry): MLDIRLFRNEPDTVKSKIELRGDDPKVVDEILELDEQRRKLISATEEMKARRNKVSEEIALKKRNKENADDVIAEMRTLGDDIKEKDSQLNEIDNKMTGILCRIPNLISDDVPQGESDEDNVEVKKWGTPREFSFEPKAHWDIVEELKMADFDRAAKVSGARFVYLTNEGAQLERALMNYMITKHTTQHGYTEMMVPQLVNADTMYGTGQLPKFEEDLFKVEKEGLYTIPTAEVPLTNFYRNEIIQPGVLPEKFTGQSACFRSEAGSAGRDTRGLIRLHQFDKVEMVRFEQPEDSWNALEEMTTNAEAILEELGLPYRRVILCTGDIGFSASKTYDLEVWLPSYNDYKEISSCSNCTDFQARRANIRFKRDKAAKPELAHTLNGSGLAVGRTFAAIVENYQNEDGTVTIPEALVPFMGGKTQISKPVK

SMILES	IC50 (EcSerRS [1]; [7])	IC50 (SaSerRS [2]; [7])	also measured
Nc1nc(-c2cccnc2)nc2c1ncn2[C@@H]1O[C@H](COS(=O)(=O)NC(=O)[C@@H](N)CO)[C@@H](O)[C@H]1O [compound 8]	6.65 ± 0.64 µM	6.34 ± 0.71 µM	
Nc1nc(Cl)nc2c1ncn2[C@@H]1O[C@H](COS(=O)(=O)NC(=O)[C@@H](N)CO)[C@@H](O)[C@H]1O [compound 2]	0.45 ± 0.05 µM	0.26 ± 0.03 µM	
Nc1nc(-c2ccccc2)nc2c1ncn2[C@@H]1O[C@H](COS(=O)(=O)NC(=O)[C@@H](N)CO)[C@@H](O)[C@H]1O [compound 4]	17.7 ± 1.42 µM	52.7 ± 4.81 µM	
Nc1nc(I)nc2c1ncn2[C@@H]1O[C@H](COS(=O)(=O)NC(=O)[C@@H](N)CO)[C@@H](O)[C@H]1O [compound 3]	1.36 ± 0.12 µM	0.38 ± 0.04 µM	
C[C@H](N)C(=O)NS(=O)(=O)OC[C@H]1O[C@@H](n2cnc3c(N)ncnc32)[C@H](O)[C@@H]1O [compound 9, AlaSA]			IC50 (HsSerRS [3]): > 1000 µM; IC50 (SaSerRS [4]): > 1000 µM; IC50 (EcSerRS [5]): > 1000 µM
C[C@@H](O)[C@H](N)C(=O)NS(=O)(=O)OC[C@H]1O[C@@H](n2cnc3c(N)ncnc32)[C@H](O)[C@@H]1O [compound 10, ThrSA]			IC50 (EcSerRS [1]): 285 µM; IC50 (SaSerRS [2]): 231 µM; IC50 (HsSerRS [3]): > 1000 µM
Nc1nc(-c2ccco2)nc2c1ncn2[C@@H]1O[C@H](COS(=O)(=O)NC(=O)[C@@H](N)CO)[C@@H](O)[C@H]1O [compound 6]	36.2 ± 2.41 µM	32.4 ± 3.56 µM	
Nc1ncnc2c1ncn2[C@@H]1O[C@H](COS(=O)(=O)NC(=O)[C@@H](N)CO)[C@@H](O)[C@H]1O [compound 1, SerSA]	0.21 ± 0.03 µM		IC50 (SaSerRS [2]; pH 7.6, 37 °C, 10 mM MgCl2, 10% DMSO, error as printed is larger than the value): 0.23 ± 0.49 µM; IC50 (HsSerRS [6]): 2.17 ± 0.21 µM
Nc1nc(-c2ccsc2)nc2c1ncn2[C@@H]1O[C@H](COS(=O)(=O)NC(=O)[C@@H](N)CO)[C@@H](O)[C@H]1O [compound 7]	1.44 ± 0.09 µM	1.24 ± 0.12 µM	
C/C=C/c1nc(N)c2ncn([C@@H]3O[C@H](COS(=O)(=O)NC(=O)[C@@H](N)CO)[C@@H](O)[C@H]3O)c2n1 [compound 5]	9.38 ± 0.7 µM	3.46 ± 0.47 µM	
